According to publication PMC9866367 (Journal of medicinal chemistry, 2022):
Each block holds one molecule with its values, some of them ahead of it.

What was measured:
[1] = molecular target: T1, purified human sAC protein (Homo sapiens, UniProt Q96PN6); experiment: In vitro cyclase activity assay; assay type: biochemical
T1 sequence (Q96PN6 1-469): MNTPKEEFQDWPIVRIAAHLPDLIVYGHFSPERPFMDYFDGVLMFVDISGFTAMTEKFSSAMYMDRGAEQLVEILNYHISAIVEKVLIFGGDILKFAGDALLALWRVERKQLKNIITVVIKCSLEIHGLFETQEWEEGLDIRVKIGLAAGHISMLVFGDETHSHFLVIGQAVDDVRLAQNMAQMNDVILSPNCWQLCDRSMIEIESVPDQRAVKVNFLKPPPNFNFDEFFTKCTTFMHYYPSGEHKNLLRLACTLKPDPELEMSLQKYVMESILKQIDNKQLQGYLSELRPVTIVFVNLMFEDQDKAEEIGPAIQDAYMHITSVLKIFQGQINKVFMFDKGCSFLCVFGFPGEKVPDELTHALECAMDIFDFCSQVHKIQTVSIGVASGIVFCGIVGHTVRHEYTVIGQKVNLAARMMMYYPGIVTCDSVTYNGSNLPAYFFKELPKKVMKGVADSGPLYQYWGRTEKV

[2] = molecular target: T2, recombinant purified His-tagged sACt protein (Homo sapiens, UniProt Q96PN6); experiment: Binding kinetics via surface plasmon resonance; conditions: read-out: SPR Residence Time
T2 sequence (Q96PN6 1-469 limits assumed): T1 sequence (Q96PN6 1-469)

Cytotoxicity = assay type: cell-based
panel of 322 kinases = experiment: Kinase panel; assay type: biochemical; conditions: Table S2
[3] = In vivo pharmacokinetic analysis in mice; parameters: species or system male CD-1 mice
[4] = test system: 46 other relevant drug targets such as GPCRs, ion channels, and nuclear receptors; experiment: Eurofins safety panel; conditions: Table S3
GSH = assay type: in vitro ADME; conditions: 5 μM compound, 5 mM GSH, up to 2 h
[5] = 50 mg/kg IP, male mice, 1 h post-dosing; cited from earlier work
[6] = male, CD-1, mouse, plasma, iv, 2 mg/kg

- biochemical activity in words [1]: almost inactive
SMILES: CN(C)C(=O)c1ccccc1Cc1cn(C)nc1-c1cc(Cl)nc(N)n1 [Compound 14]

- residence time [2]: 8.07 min
SMILES: Nc1nc(Cl)cc(-c2nn(C(F)F)cc2Cc2ccccc2OCC(=O)N2CCOCC2)n1 [Compound 24]

- activity against a panel of 322 kinases (panel of 322 kinases): did not show appreciable activity
- unbound plasma exposure over cellular IC50 ([…]) ([3]; 50 mg/kg PO, CD-1 mice, out to 4 h): ~ 10 fold
- AUC(0-t) [3, 6]: 780 ± 110 µM·h
- clearance [3, 6]: 94 ± 12 mL/min/kg
- AUC(0-t) ([3]; male, CD-1, mouse, plasma, po, 10 mg/kg): 410 ± 57 µM·h
- AUC(0-t) ([3]; male, CD-1, mouse, plasma, po, 50 mg/kg): 5460 ± 1500 µM·h
- glutathione reactivity (GSH; listed as TDI-11861): no evidence of adduct formation
- glutathione reactivity (GSH; listed as TDI-11861 (33)): low propensity at 5 μM
SMILES: Nc1nc(Cl)cc(-c2nn(C(F)F)cc2Cc2ccccc2OCCN2CCOC[C@H]2CO)n1 [Compound 33, [(3R)-4-[2-[2-[[3-(2-Amino-6-chloro-pyrimidin-4-yl)-1-(difluoromethyl)pyrazol-4-yl]methyl]phenoxy]ethyl]morpholin-3-yl]methanol]
- cytotoxicity (Cytotoxicity): >20 µM
- cytotoxicity in words (Cytotoxicity; at 20 μM): no cytotoxicity
- activity against 46 other drug targets in Eurofins safety panel [4]: did not show appreciable activity
- systemic level [5]: 7.04 µM
